Reference: PubChem BioAssay AID1259407 (Chemical Carcinogenesis Research Information System (CCRIS), 2018)
Calls of active or inactive are those of the source. How the calls were made is not given here.

Test system: CCRIS mutagenicity, Ames/micronucleus/aberration tests
Experiment: CCRIS mutagenicity studies
[1] = Test System: AMES SALMONELLA TYPHIMURIUM, Strain/Indicator: TA98, Metabolic Activation: NONE, Method: PREINCUBATION
[2] = Test System: AMES SALMONELLA TYPHIMURIUM, Strain/Indicator: TA98, Metabolic Activation: NONE, Method: STANDARD PLATE
[3] = Test System: AMES SALMONELLA TYPHIMURIUM, Strain/Indicator: TA98, Metabolic Activation: RAT, LIVER, S-9, AROCLOR 1254, Method: STANDARD PLATE
[4] = Test System: AMES SALMONELLA TYPHIMURIUM, Strain/Indicator: TA100, Metabolic Activation: NONE, Method: PREINCUBATION
[5] = Test System: AMES SALMONELLA TYPHIMURIUM, Strain/Indicator: TA100, Metabolic Activation: NONE, Method: STANDARD PLATE
[6] = Test System: AMES SALMONELLA TYPHIMURIUM, Strain/Indicator: TA100, Metabolic Activation: RAT, LIVER, S-9, AROCLOR 1254, Method: STANDARD PLATE
[7] = Test System: AMES SALMONELLA TYPHIMURIUM, Strain/Indicator: TA1535, Metabolic Activation: NONE, Method: STANDARD PLATE
[8] = Test System: AMES SALMONELLA TYPHIMURIUM, Strain/Indicator: TA1535, Metabolic Activation: RAT, LIVER, S-9, AROCLOR 1254, Method: STANDARD PLATE
[9] = Test System: AMES SALMONELLA TYPHIMURIUM, Strain/Indicator: TA1537, Metabolic Activation: NONE, Method: STANDARD PLATE
[10] = Test System: AMES SALMONELLA TYPHIMURIUM, Strain/Indicator: TA1537, Metabolic Activation: RAT, LIVER, S-9, AROCLOR 1254, Method: STANDARD PLATE

Measured: mutagenic call

O=c1oc2cc([N+](=O)[O-])ccc2c2ccccc12
inactive: Test System: AMES SALMONELLA TYPHIMURIUM, Strain/Indicator: TA7001, Metabolic Activation: NONE, Method: PREINCUBATION inactive; negative | Test System: AMES SALMONELLA TYPHIMURIUM, Strain/Indicator: TA7001, Metabolic Activation: RAT LIVER S-9, 3-METHYLCHOLANTHRENE (15%), Method: PREINCUBATION inactive; negative | Test System: AMES SALMONELLA TYPHIMURIUM, Strain/Indicator: TA7003, Metabolic Activation: NONE, Method: PREINCUBATION inactive; negative | Test System: AMES SALMONELLA TYPHIMURIUM, Strain/Indicator: TA7003, Metabolic Activation: RAT LIVER S-9, 3-METHYLCHOLANTHRENE, Method: PREINCUBATION inactive; negative
active: Test System: AMES SALMONELLA TYPHIMURIUM, Strain/Indicator: TA98(1,8-DNP6), Metabolic Activation: NONE, Method: MICROSUSPENSION active; positive | Test System: AMES SALMONELLA TYPHIMURIUM, Strain/Indicator: TA98(1,8-DNP6), Metabolic Activation: NONE, Method: PREINCUBATION active; positive | Test System: AMES SALMONELLA TYPHIMURIUM, Strain/Indicator: TA98(1,8-DNP6), Metabolic Activation: NONE, Method: STANDARD PLATE active; positive | Test System: AMES SALMONELLA TYPHIMURIUM, Strain/Indicator: TA98(NR), Metabolic Activation: NONE, Method: MICROSUSPENSION active; positive | Test System: AMES SALMONELLA TYPHIMURIUM, Strain/Indicator: TA98(NR), Metabolic Activation: NONE, Method: PREINCUBATION active; positive | Test System: AMES SALMONELLA TYPHIMURIUM, Strain/Indicator: TA98(NR), Metabolic Activation: NONE, Method: STANDARD PLATE active; positive | Test System: AMES SALMONELLA TYPHIMURIUM, Strain/Indicator: TA98(NR), Metabolic Activation: RAT LIVER S-9 (15%), Method: PREINCUBATION active; positive | Test System: AMES SALMONELLA TYPHIMURIUM, Strain/Indicator: TA98(NR), Metabolic Activation: RAT LIVER S-9, 3-METHYLCHOLANTHRENE, Method: PREINCUBATION active; positive | Test System: AMES SALMONELLA TYPHIMURIUM, Strain/Indicator: TA98(NR), Metabolic Activation: RAT LIVER S-9, BETA-NAPHTHOFLAVONE (15%), Method: PREINCUBATION active; positive | Test System: AMES SALMONELLA TYPHIMURIUM, Strain/Indicator: TA98(NR), Metabolic Activation: RAT LIVER S-9, PCB (15%), Method: PREINCUBATION active; positive | Test System: AMES SALMONELLA TYPHIMURIUM, Strain/Indicator: TA98(NR), Metabolic Activation: RAT LIVER S-9, PHENOBARBITAL (15%), Method: PREINCUBATION active; positive | Test System: AMES SALMONELLA TYPHIMURIUM, Strain/Indicator: TA98(NR), Metabolic Activation: RAT, LIVER, S-9, AROCLOR 1254, Method: STANDARD PLATE active; positive | Test System: AMES SALMONELLA TYPHIMURIUM, Strain/Indicator: TA98, Metabolic Activation: NONE, Method: MICROSUSPENSION active; positive | [1] active; positive | [2] active; positive | Test System: AMES SALMONELLA TYPHIMURIUM, Strain/Indicator: TA98, Metabolic Activation: RAT, LIVER, S-9, AROCLOR 1254, Method: MICROSUSPENSION active; positive | [3] active; positive | Test System: AMES SALMONELLA TYPHIMURIUM, Strain/Indicator: TA100, Metabolic Activation: NONE, Method: MICROSUSPENSION active; positive | [4] active; positive | [5] active; positive | Test System: AMES SALMONELLA TYPHIMURIUM, Strain/Indicator: TA100, Metabolic Activation: RAT LIVER S-9, 3-METHYLCHOLANTHRENE (15%), Method: PREINCUBATION active; positive | Test System: AMES SALMONELLA TYPHIMURIUM, Strain/Indicator: TA100, Metabolic Activation: RAT, LIVER, S-9, AROCLOR 1254, Method: MICROSUSPENSION active; positive | [6] active; positive | [7] active; positive | [8] active; positive | [9] active; positive | [10] active; positive | Test System: AMES SALMONELLA TYPHIMURIUM, Strain/Indicator: TA1538, Metabolic Activation: NONE, Method: STANDARD PLATE active; positive | Test System: AMES SALMONELLA TYPHIMURIUM, Strain/Indicator: TA1538, Metabolic Activation: RAT, LIVER, S-9, AROCLOR 1254, Method: STANDARD PLATE active; positive | Test System: AMES SALMONELLA TYPHIMURIUM, Strain/Indicator: TA7002, Metabolic Activation: NONE, Method: PREINCUBATION active; positive | Test System: AMES SALMONELLA TYPHIMURIUM, Strain/Indicator: TA7002, Metabolic Activation: RAT LIVER S-9, 3-METHYLCHOLANTHRENE, Method: PREINCUBATION active; positive | Test System: AMES SALMONELLA TYPHIMURIUM, Strain/Indicator: TA7004, Metabolic Activation: NONE, Method: PREINCUBATION active; positive | Test System: AMES SALMONELLA TYPHIMURIUM, Strain/Indicator: TA7004, Metabolic Activation: RAT LIVER S-9, 3-METHYLCHOLANTHRENE, Method: PREINCUBATION active; positive | Test System: AMES SALMONELLA TYPHIMURIUM, Strain/Indicator: TA7005, Metabolic Activation: NONE, Method: PREINCUBATION active; positive | Test System: AMES SALMONELLA TYPHIMURIUM, Strain/Indicator: TA7005, Metabolic Activation: RAT LIVER S-9, 3-METHYLCHOLANTHRENE, Method: PREINCUBATION active; positive | Test System: AMES SALMONELLA TYPHIMURIUM, Strain/Indicator: TA7006, Metabolic Activation: NONE, Method: PREINCUBATION active; positive | Test System: AMES SALMONELLA TYPHIMURIUM, Strain/Indicator: TA7006, Metabolic Activation: RAT LIVER S-9, 3-METHYLCHOLANTHRENE, Method: PREINCUBATION active; positive

O=C(Cl)OCc1ccccc1
inactive: [2] inactive; negative | [3] inactive; negative | [5] inactive; negative | [6] inactive; negative | [7] inactive; negative | [8] inactive; negative | [9] inactive; negative | [10] inactive; negative

COC(=O)CC(=O)OC
inactive: [1] inactive; negative | Test System: AMES SALMONELLA TYPHIMURIUM, Strain/Indicator: TA98, Metabolic Activation: RAT LIVER S-9, PHENOBARBITAL AND BETA-NAPHTHOFLAVONE, Method: PREINCUBATION inactive; negative | [4] inactive; negative | Test System: AMES SALMONELLA TYPHIMURIUM, Strain/Indicator: TA100, Metabolic Activation: RAT LIVER S-9, PHENOBARBITAL AND BETA-NAPHTHOFLAVONE, Method: PREINCUBATION inactive; negative | Test System: AMES SALMONELLA TYPHIMURIUM, Strain/Indicator: TA1535, Metabolic Activation: NONE, Method: PREINCUBATION inactive; negative | Test System: AMES SALMONELLA TYPHIMURIUM, Strain/Indicator: TA1535, Metabolic Activation: RAT LIVER S-9, PHENOBARBITAL AND BETA-NAPHTHOFLAVONE, Method: PREINCUBATION inactive; negative | Test System: AMES SALMONELLA TYPHIMURIUM, Strain/Indicator: TA1537, Metabolic Activation: NONE, Method: PREINCUBATION inactive; negative | Test System: AMES SALMONELLA TYPHIMURIUM, Strain/Indicator: TA1537, Metabolic Activation: RAT LIVER S-9, PHENOBARBITAL AND BETA-NAPHTHOFLAVONE, Method: PREINCUBATION inactive; negative | Test System: E.COLI, Strain/Indicator: WP2UVRA/PKM101, Metabolic Activation: NONE, Method: PREINCUBATION inactive; negative | Test System: E.COLI, Strain/Indicator: WP2UVRA/PKM101, Metabolic Activation: RAT LIVER S-9, PHENOBARBITAL AND BETA-NAPHTHOFLAVONE, Method: PREINCUBATION inactive; negative
